Data on 14 molecules can be found in patent US20090239846A1, “Novel Compounds” (Glaxo Group Limited, priority 2005, published 2009).

Each structure is given as a SMILES string. “Also recorded” adds a separate entry of the source.

One assay concerns the target T1, Recombinant human p38α (Homo sapiens, UniProt Q16539).
T1 construct: GST; made in house
Description: Fluorescence anisotropy kinase binding assay (standard or low volume). The note with it: 12 nM p38α, 5 nM fluorescent ligand. From the text: The concentration of kinase enzyme should preferably be >2×Kf. The concentration of fluorescent ligand required will depend on the instrumentation used, and the fluorescent and physicochemical properties. The concentration used must be lower than the concentration of kinase enzyme, and preferably less than half the kinase enzyme concentration.
The fluorescent ligand is the following compound:
[drawing 329] • which is derived from 5-[2-(4-aminomethylphenyl)-5-pyridin-4-yl-1H-imidazol-4-yl]-2-chlorophenol and rhodamine green. Recombinant human p38α was expressed as a GST-tagged protein. To activate this protein, 3.5 μM unactivated p38α was incubated in 50 mM Tris-HCl pH 7.5, 0.1 mM EGTA, 0.1% 2-mercaptoethanol, 0.1 mM sodium vanadate, 10 mM MgAc, 0.1 mM ATP with 200 nM MBP-MKK6 DD at 30 degrees for 30 mins. Following activation p38α was re-purified and the activity assessed using a standard filter-binding assay. Protocol: All components are dissolved in buffer of composition 62.5 mM HEPES, pH 7.5, 1.25 mM CHAPS, 1 mM DTT, 12.5 mM MgCl2 with final concentrations of 12 nM p38α and 5 nM fluorescent ligand. 30 μl of this reaction mixture is added to wells containing 1 μl of various concentrations of test compound (0.28 nM-16.6 μM final) or DMSO vehicle (3% final) in NUNC 384 well black microtitre plate and equilibrated for 30-60 mins at room temperature. Fluorescence anisotropy is read in Molecular Devices Acquest (excitation 485 nm/emission 535 nm). Definitions: Ki=dissociation constant for inhibitor binding • Kf=dissociation constant for fluorescent ligand binding
The concentration of kinase enzyme should preferably be 2×Kf. The concentration of fluorescent ligand required will depend on the instrumentation used, and the fluorescent and physicochemical properties. The concentration used must be lower than the concentration of kinase enzyme, and preferably less than half the kinase enzyme concentration. The fluorescent ligand is the following compound:
which is derived from 5-[2-(4-aminomethylphenyl)-5-pyridin-4-yl-1H-imidazol-4-yl]-2-chlorophenol and rhodamine green. Recombinant human p38α was expressed as a GST-tagged protein. To activate this protein, 3.5 μM unactivated p38α was incubated in 50 mM Tris-HCl pH 7.5, 0.1 mM EGTA, 0.1% 2-mercaptoethanol, 0.1 mM sodium vanadate, 10 mM MgAc, 0.1 mM ATP with 200 nM MBP-MKK6 DD at 30 degrees for 30 mins. Following activation p38α was re-purified and the activity assessed using a standard filter-binding assay. Protocol: All components are dissolved in buffer of composition 62.5 mM HEPES, pH 7.5, 1.25 mM CHAPS, 1 mM DTT, 12.5 mM MgCl2 with final concentrations of 12 nM p38α and 5 nM fluorescent ligand. […] of this reaction mixture is added to wells containing 0.1 μl of various concentrations of test compound (0.02 nM-25 μM final) or DMSO vehicle (1.7% final) in Greiner low volume 384 well black microtitre plate and equilibrated for 30-60 mins at room temperature. Fluorescence anisotropy is read in Molecular Devices Acquest (excitation 485 nm/emission 535 nm). Definitions: Ki dissociation constant for inhibitor binding • Kf=dissociation constant for fluorescent ligand binding It is noted that there are two assay formats shown above for the Fluorescence anisotropy kinase binding assay. The only difference between these two assays is the volume used and the plate type. […] The results described herein may have been performed in either assay format and are not differentiated as to which.

The test system of assay [1] is influx of neutrophils to the lung in LPS-challenged rats. Kind of assay: Rat LPS neutrophilia model. It counts as in vivo. The note with it: LPS aerosol, lavage 4 hours later, in at least one of the range of conditions tested, significance p<0.05. As for the experimental part: The effect of compounds on the influx of neutrophils to the lung in LPS-challenged rats is evaluated as follows. The test compound is suspended in one of the following solutions: 0.5% tween 80/PBS, 0.5% tween 80/saline, 10% EtOH/saline (with pH adjusted to 2.0, or 8.0 with HCl, or unadjusted), Saline (pH 2.0, 6.5 or 8.0, 0.5% Tragacanth, 1% DMSO/20% Encapsin/Saline, or acidified 5% Tragacanth. The suspension process may be aided by the use of a glass homogenizer. For intratracheal administration, the animals are anesthetized with inhaled isoflurane and placed in a supine position, the trachea is intubated with a steel gavage needle (1.5 inch, 22 gauge, small ball) or a Penn-Century Microsprayer Aerosolizer (model IA-LB) and 200 ul of dosing solution is delivered. The animals are visually monitored during the recovery process, which typically occurs within two minutes.
Rats treated with compound or vehicle (15 min-24 hours pretreatment) are exposed to an LPS aerosol (100 ug/ml) for 15 min. Four hours later the rats are euthanized with pentobarbital (100 mg/kg, i.p.) and the airways are lavaged with 5 washes of 5 ml of phosphate buffered saline. The harvested cells are stained (Diffquick) and counted to determine total and differential cell data. In a typical study, macrophages represent 40-70% of the total cells, and polymorphonuclear cells 30-60% of the total cells. Inhibition of neutrophil levels relative to no compound controls is calculated based on the differential counts.
The assay has varying conditions, such as concentration, pretreat time, form of the compound (crystalline, amorphous, salts, micronised), and a wet or dry application of the compound.
The data is obtained as % inhibition using a particular concentration and pretreat time.

T1 sequence (Q16539 whole entry): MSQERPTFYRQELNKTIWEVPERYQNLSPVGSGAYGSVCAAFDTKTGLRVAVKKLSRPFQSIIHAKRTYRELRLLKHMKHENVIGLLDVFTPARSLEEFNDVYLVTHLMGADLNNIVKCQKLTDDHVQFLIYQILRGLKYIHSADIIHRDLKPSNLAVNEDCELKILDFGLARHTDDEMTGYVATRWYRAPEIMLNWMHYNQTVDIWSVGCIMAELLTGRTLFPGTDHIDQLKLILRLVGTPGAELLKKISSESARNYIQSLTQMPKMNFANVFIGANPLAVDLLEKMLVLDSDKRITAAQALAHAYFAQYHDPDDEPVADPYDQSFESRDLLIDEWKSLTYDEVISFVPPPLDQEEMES

Regarding `Cc1ccc(C(=O)Nc2ccc(F)cc2)cc1-c1nc(N(C)CCN(C)C)nc2c1CNC(=O)N2c1c(F)cccc1F` [Example 32, 3-{8-(2,6-difluorophenyl)-2-[[2-(dimethylamino)ethyl](methyl)amino]-7-oxo-5,6,7,8-tetrahydropyrimido[4,5-d]pyrimidin-4-yl}-N-(4-fluorophenyl)-4-methylbenzamide], the “active in the assay (pIC50, p38α binding)” value (from here on “active in the assay”) at Recombinant human p38α was “active”. In addition, the inhibition of neutrophilia result in assay [1] is listed as “statistically nonsignificant inhibition of neutrophilia”.

`Cc1ccc(C(=O)Nc2nccs2)cc1-c1nc(NCCN(C)C)nc2c1CNC(=O)N2c1c(F)cccc1F` [118(c), 3-(8-(2,6-difluorophenyl)-2-{[2-(dimethylamino)ethyl]amino}-7-oxo-5,6,7,8-tetrahydropyrimido[4,5-d]pyrimidin-4-yl)-4-methyl-N-1,3-thiazol-2-ylbenzamide]: the “active in the assay” value at Recombinant human p38α is given as “active”. In addition, the inhibition of neutrophilia result in assay [1] is “statistically significant inhibition of neutrophilia”.

Consider `Cc1ccc(C(=O)Nc2ccc(F)cc2)cc1-c1nc(N2CCC(N3CCCCC3)CC2)nc2c1CNC(=O)N2c1c(F)cccc1F` [87(b), 3-[2-(1,4′-bipiperidin-1′-yl)-8-(2,6-difluorophenyl)-7-oxo-5,6,7,8-tetrahydropyrimido[4,5-d]pyrimidin-4-yl]-N-(4-fluorophenyl)-4-methylbenzamide], for which the “active in the assay” value at Recombinant human p38α is “active”. The inhibition of neutrophilia entry in assay [1] is on record as “statistically nonsignificant inhibition of neutrophilia”.

Consider `CSc1nc(-c2cc(NC(=O)c3ccc(C)c(F)c3)ccc2C)c2c(n1)N(c1c(F)cccc1F)C(=O)NC2` [23(c), N-{3-[8-(2,6-difluorophenyl)-2-(methylthio)-7-oxo-5,6,7,8-tetrahydropyrimido[4,5-d]pyrimidin-4-yl]-4-methylphenyl}-3-fluoro-4-methylbenzamide], for which the “active in the assay” value on Recombinant human p38α was “active”. For the same molecule, in assay [1], the inhibition of neutrophilia entry is “inactive”.

In the case of `Cc1ccc(C(=O)Nc2ccc(F)cc2)cc1-c1nc(NCCN(C)C)nc2c1CNC(=O)N2c1c(F)cccc1F` [8(c), 3-(8-(2,6-difluorophenyl)-2-{[2-(dimethylamino)ethyl]amino}-7-oxo-5,6,7,8-tetrahydropyrimido[4,5-d]-pyrimidin-4-yl)-N-(4-fluorophenyl)-4-methylbenzamide], at Recombinant human p38α, the “active in the assay” value is “active”. For the same molecule, in assay [1], the inhibition of neutrophilia result is reported as “statistically significant inhibition of neutrophilia”.

With `CSc1nc(-c2cc(NC(=O)c3ccsc3)ccc2C)c2c(n1)N(c1c(F)cccc1F)C(=O)NC2` [7(c), N-{3-[8-(2,6-Difluorophenyl)-2-(methylthio)-7-oxo-5,6,7,8-tetrahydropyrimido[4,5-d]pyrimidin-4-yl]-4-methylphenyl}-3-thiophenecarboxamide], the “active in the assay” value on Recombinant human p38α is listed as “active”. The inhibition of neutrophilia result in assay [1] is “inactive”.

Consider `CCN(CC)CCCNc1nc(-c2cc(C(=O)Nc3nccs3)ccc2C)c2c(n1)N(c1c(F)cccc1F)C(=O)NC2` [Example 120, 3-[2-{[3-(diethylamino)propyl]amino}-8-(2,6-difluorophenyl)-7-oxo-5,6,7,8-tetrahydropyrimido[4,5-d]pyrimidin-4-yl]-4-methyl-N-1,3-thiazol-2-ylbenzamide], for which the inhibition of neutrophilia entry in assay [1] is listed as “statistically significant inhibition of neutrophilia”.

Turning to `CN(C)CCNc1nc(-c2cccc(C(=O)Nc3nccs3)c2)c2c(n1)N(c1c(F)cccc1F)C(=O)NC2` [Example 92, 3-(8-(2,6-difluorophenyl)-2-{[2-(dimethylamino)ethyl]amino}-7-oxo-5,6,7,8-tetrahydropyrimido[4,5-d]pyrimidin-4-yl)-N-1,3-thiazol-2-ylbenzamide], the inhibition of neutrophilia result in assay [1] is “statistically significant inhibition of neutrophilia”.

Turning to `CSc1ccc(NC(=O)c2ccc(C)c(-c3nc(NCCN(C)C)nc4c3CNC(=O)N4c3c(F)cccc3F)c2)cc1` [Example 127, 3-(8-(2,6-difluorophenyl)-2-{[2-(dimethylamino)ethyl]amino}-7-oxo-5,6,7,8-tetrahydropyrimido[4,5-d]pyrimidin-4-yl)-4-methyl-N-[4-(methylthio)-phenyl]benzamide], the inhibition of neutrophilia entry in assay [1] was “statistically significant inhibition of neutrophilia”.

In the case of `Cc1ccc(C(=O)Nc2ccc(F)cc2)cc1-c1nc(N2CCC(N3CCCC3)CC2)nc2c1CNC(=O)N2c1c(F)cccc1F` [86(c), 3-{8-(2,6-difluorophenyl)-7-oxo-2-[4-(1-pyrrolidinyl)-1-piperidinyl]-5,6,7,8-tetrahydropyrimido[4,5-d]pyrimidin-4-yl}-N-(4-fluorophenyl)-4-methylbenzamide], the “active in the assay” value on Recombinant human p38α is reported as “active”. Besides, in assay [1], the inhibition of neutrophilia result was “statistically nonsignificant inhibition of neutrophilia”.

Turning to `COc1ccc(NC(=O)c2ccc(C)c(-c3nc(NCCN(C)C)nc4c3CNC(=O)N4c3c(F)cccc3F)c2)cn1` [Example 140, 3-(8-(2,6-difluorophenyl)-2-{[2-(dimethylamino)ethyl]amino}-7-oxo-5,6,7,8-tetrahydropyrimido[4,5-d]pyrimidin-4-yl)-4-methyl-N-[6-(methyloxy)-3-pyridinyl]benzamide], the inhibition of neutrophilia result in assay [1] is recorded as “statistically significant inhibition of neutrophilia”.

`Cc1ccc(C(=O)NC(C)C)cc1-c1nc(N2CCC(N3CCCCC3)CC2)nc2c1CNC(=O)N2c1c(F)cccc1F` [Example 57, 3-[2-(1,4′-bipiperidin-1′-yl)-8-(2,6-difluorophenyl)-7-oxo-5,6,7,8-tetrahydropyrimido[4,5-d]pyrimidin-4-yl]-4-methyl-N-(1-methylethyl)benzamide]: the inhibition of neutrophilia result in assay [1] was “statistically nonsignificant inhibition of neutrophilia”.

As for `Cc1ccc(C(=O)NC(C)C)cc1-c1nc(N2CCC(N3CCCC3)CC2)nc2c1CNC(=O)N2c1c(F)cccc1F` [Example 60, 3-{8-(2,6-difluorophenyl)-7-oxo-2-[4-(1-pyrrolidinyl)-1-piperidinyl]-5,6,7,8-tetrahydropyrimido[4,5-d]pyrimidin-4-yl}-4-methyl-N-(1-methylethyl)benzamide], the inhibition of neutrophilia result in assay [1] is “statistically nonsignificant inhibition of neutrophilia; also recorded: inactive”.

In the case of `Cc1ccc(C(=O)NC(C)C)cc1-c1nc(N2CCC(N3CCC(C)CC3)CC2)nc2c1CNC(=O)N2c1c(F)cccc1F` [Example 70, 3-[8-(2,6-difluorophenyl)-2-(4-methyl-1,4′-bipiperidin-1′-yl)-7-oxo-5,6,7,8-tetrahydropyrimido[4,5-d]pyrimidin-4-yl]-4-methyl-N-(1-methylethyl)benzamide], the inhibition of neutrophilia entry in assay [1] was “statistically significant inhibition of neutrophilia”.
